Test results published in PubChem BioAssay AID248 (DTP/NCI, 2004).
“And” between values parts separate entries of the source, which are not always exact repeats. Identical values can stand only once. Toxic doses and inconclusive results are not listed. No stated cut-off is given here; in the data, active means T/C of 150% or more; inactive means T/C below 125%.

Tested on: L1210 leukemia ip in BDF1 mice, survival T/C
Test: NCI In Vivo Anticancer Drug Screen. Data for tumor model L1210 Leukemia (intraperitoneal) in B6D2F1 (BDF1) mice
Settings: endpoint: mean survival time, higher = longer survival
In short: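 Ratio derived from survival: compound-dosed mice over vehicle-dosed mice, all bearing a transplantable tumor.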

[1] = dose: 100.0 mg/kg/injection, schedule: Q04DX002 (ip), vehicle: Klucel (hydroxypropylcellulose) (HPC)
[2] = dose: 200.0 mg/kg/injection, schedule: Q04DX002 (ip), vehicle: Klucel (hydroxypropylcellulose) (HPC)
[3] = dose: 25.0 mg/kg/injection, schedule: Q04DX003 (ip), vehicle: Klucel (hydroxypropylcellulose) (HPC)
[4] = dose: 50.0 mg/kg/injection, schedule: Q04DX003 (ip), vehicle: Klucel (hydroxypropylcellulose) (HPC)
[5] = dose: 50.0 mg/kg/injection, schedule: Q01DX001 (ip), vehicle: saline
[6] = dose: 100.0 mg/kg/injection, schedule: Q01DX001 (ip), vehicle: saline
[7] = dose: 200.0 mg/kg/injection, schedule: Q01DX001 (ip), vehicle: saline
[8] = dose: 400.0 mg/kg/injection, schedule: Q01DX001 (ip), vehicle: saline
[9] = dose: 100.0 mg/kg/injection, schedule: Q04DX003 (ip), vehicle: saline
[10] = dose: 200.0 mg/kg/injection, schedule: Q04DX003 (ip), vehicle: saline
[11] = dose: 400.0 mg/kg/injection, schedule: Q04DX003 (ip), vehicle: saline
[12] = dose: 100.0 mg/kg/injection, schedule: Q01DX001 (ip), vehicle: carboxymethylcellulose (CMC)
[13] = dose: 200.0 mg/kg/injection, schedule: Q01DX001 (ip), vehicle: carboxymethylcellulose (CMC)
[14] = dose: 400.0 mg/kg/injection, schedule: Q01DX001 (ip), vehicle: carboxymethylcellulose (CMC)
[15] = dose: 400.0 mg/kg/injection, schedule: Q04DX002 (ip), vehicle: Klucel (hydroxypropylcellulose) (HPC)

Measured: T/C

COc1cccc(NC(=S)Nc2cccc(OC)c2)c1
inactive: dose: 100.0 mg/kg/injection, schedule: Q01DX001 (ip), vehicle: saline with Tween-80 108 % of control | dose: 100.0 mg/kg/injection, schedule: Q01DX009 (ip), vehicle: saline with Tween-80 95 % of control | dose: 100.0 mg/kg/injection, schedule: Q04DX002 (ip), vehicle: saline with Tween-80 91 % of control | dose: 200.0 mg/kg/injection, schedule: Q01DX001 (ip), vehicle: saline with Tween-80 104 % of control | dose: 200.0 mg/kg/injection, schedule: Q01DX009 (ip), vehicle: saline with Tween-80 92 % of control and 100 % of control | dose: 200.0 mg/kg/injection, schedule: Q04DX002 (ip), vehicle: saline with Tween-80 94 % of control and 96 % of control | dose: 400.0 mg/kg/injection, schedule: Q01DX001 (ip), vehicle: saline with Tween-80 101 % of control | dose: 400.0 mg/kg/injection, schedule: Q01DX009 (ip), vehicle: saline with Tween-80 90 % of control | dose: 400.0 mg/kg/injection, schedule: Q04DX002 (ip), vehicle: saline with Tween-80 104 % of control and 88 % of control

O=[N+]([O-])/C=C\c1ccc(/C=C/[N+](=O)[O-])cc1
inactive: dose: 1.5 mg/kg/injection, schedule: Q01DX009 (ip), vehicle: other 95 % of control | dose: 1.5 mg/kg/injection, schedule: Q04DX003 (ip), vehicle: other 101 % of control | dose: 3.0 mg/kg/injection, schedule: Q01DX009 (ip), vehicle: other 93 % of control | dose: 3.0 mg/kg/injection, schedule: Q04DX003 (ip), vehicle: other 101 % of control | dose: 6.0 mg/kg/injection, schedule: Q04DX003 (ip), vehicle: other 98 % of control

Cn1c(Cl)c(C=O)c2ccccc21
inactive: dose: 50.0 mg/kg/injection, schedule: Q04DX002 (ip), vehicle: Klucel (hydroxypropylcellulose) (HPC) 90 % of control | [1] 93 % of control | [2] 97 % of control

Cc1c([N+](=O)[O-])cc(C(C)(C)C)c(OC(=O)Nc2ccccc2)c1[N+](=O)[O-]
inactive: dose: 12.5 mg/kg/injection, schedule: Q04DX003 (ip), vehicle: Klucel (hydroxypropylcellulose) (HPC) 93 % of control | [3] 106 % of control | [4] 95 % of control

Nc1ccc(C(O)(C(F)(F)F)C(F)(F)F)c(C(=O)O)c1
inactive: dose: 100.0 mg/kg/injection, schedule: Q04DX003 (ip), vehicle: other 101 % of control | dose: 200.0 mg/kg/injection, schedule: Q04DX003 (ip), vehicle: other 101 % of control | dose: 400.0 mg/kg/injection, schedule: Q04DX003 (ip), vehicle: other 101 % of control

O=C(O)c1cccc(-n2cnc3c(=O)[nH]cnc32)c1
inactive: [5] 108 % of control | [6] 93 % of control | [7] 96 % of control | [8] 104 % of control

C/C=C1/CC(C)C(O)(CO)C(=O)OCC2=CCN3CCC(OC1=O)C23 (configuration not stated)
inactive: dose: 75.0 mg/kg/injection, schedule: Q01DX001 (ip), vehicle: carboxymethylcellulose (CMC) 100 % of control

NCc1ccccc1[N+](=O)[O-]
inactive: [9] 104 % of control | [10] 104 % of control | [11] 102 % of control

N#Cc1ccccc1-c1ccccc1C#N
inactive: [12] 105 % of control | [13] 107 % of control | [14] 107 % of control

CN(C)CCOC(=O)c1ccccc1C=O
inactive: [1] 105 % of control | [2] 98 % of control | [15] 102 % of control

O=C(C(=O)c1ccc(Cl)cc1)c1ccc(Cl)cc1
inactive: dose: 1.56 mg/kg/injection, schedule: Q01DX009 (ip), vehicle: other 106 % of control | dose: 3.13 mg/kg/injection, schedule: Q01DX009 (ip), vehicle: other 95 % of control | dose: 6.25 mg/kg/injection, schedule: Q01DX009 (ip), vehicle: other 97 % of control and 92 % of control | dose: 25.0 mg/kg/injection, schedule: Q01DX009 (ip), vehicle: other 88 % of control | dose: 50.0 mg/kg/injection, schedule: Q01DX001 (ip), vehicle: carboxymethylcellulose (CMC) 94 % of control | [12] 94 % of control | dose: 100.0 mg/kg/injection, schedule: Q04DX003 (ip), vehicle: saline with Tween-80 86 % of control | [13] 89 % of control | dose: 200.0 mg/kg/injection, schedule: Q04DX003 (ip), vehicle: saline with Tween-80 88 % of control | [14] 92 % of control | dose: 400.0 mg/kg/injection, schedule: Q04DX003 (ip), vehicle: saline with Tween-80 88 % of control

COC(=O)C1CCCCC1NC(C)=O (configuration not stated)
inactive: [6] 102 % of control | [9] 114 % of control | [7] 110 % of control | [10] 100 % of control | [8] 103 % of control | [11] 103 % of control

N/C(=N\c1nc(-c2ccccc2)cc(-c2ccccc2O)n1)N1CCOCC1
inactive: [1] 98 % of control | [2] 98 % of control | [15] 95 % of control

C#CC(=O)OCC#CCOC(=O)C#C
inactive: dose: 1.56 mg/kg/injection, schedule: Q01DX009 (ip), vehicle: saline with Tween-80 111 % of control | dose: 3.12 mg/kg/injection, schedule: Q01DX009 (ip), vehicle: saline with Tween-80 101 % of control | dose: 6.25 mg/kg/injection, schedule: Q01DX009 (ip), vehicle: saline with Tween-80 87 % of control and 90 % of control

BrC1(Br)C23CC=CCC12CCCC3 (configuration not stated)
inactive: [9] 95 % of control | [10] 100 % of control | [11] 105 % of control

CCOC(=O)c1ccc(NC(=O)Oc2ccccc2F)cc1
inactive: dose: 100.0 mg/kg/injection, schedule: Q01DX009 (ip), vehicle: Klucel (hydroxypropylcellulose) (HPC) 91 % of control | dose: 200.0 mg/kg/injection, schedule: Q01DX009 (ip), vehicle: Klucel (hydroxypropylcellulose) (HPC) 98 % of control | dose: 400.0 mg/kg/injection, schedule: Q01DX009 (ip), vehicle: Klucel (hydroxypropylcellulose) (HPC) 96 % of control

Sc1ccccc1Cl
inactive: dose: 12.5 mg/kg/injection, schedule: Q01DX009 (ip), vehicle: Klucel (hydroxypropylcellulose) (HPC) 97 % of control | dose: 25.0 mg/kg/injection, schedule: Q01DX009 (ip), vehicle: Klucel (hydroxypropylcellulose) (HPC) 95 % of control | [3] 103 % of control | dose: 50.0 mg/kg/injection, schedule: Q01DX009 (ip), vehicle: Klucel (hydroxypropylcellulose) (HPC) 97 % of control | [4] 103 % of control | dose: 100.0 mg/kg/injection, schedule: Q04DX003 (ip), vehicle: Klucel (hydroxypropylcellulose) (HPC) 102 % of control

Clc1nc(Cl)c2c3c(sc2n1)CCCC3
inactive: dose: 100.0 mg/kg/injection, schedule: Q01DX001 (ip), vehicle: saline sonified 92 % of control | dose: 200.0 mg/kg/injection, schedule: Q01DX001 (ip), vehicle: saline sonified 107 % of control | dose: 400.0 mg/kg/injection, schedule: Q01DX001 (ip), vehicle: saline sonified 90 % of control

Nc1ccc(/C=C\C2(CCl)OCCO2)cc1
inactive: [5] 100 % of control | [6] 97 % of control | [7] 103 % of control | [8] 94 % of control

Cc1cc(N=C2C=C(Br)C(=O)C(Br)=C2)cc(CN(CC(=O)O)CC(=O)O)c1O
inactive: [6] 105 % of control | [7] 111 % of control | [8] 100 % of control
